Data as given in the NIST ThermoML archive (doi:10.1016/j.jct.2016.08.015).
Numbers after ± are expanded uncertainties.

Assay: xn = mol fraction of the nth substance listed
Details: 101.3 kPa, Liquid, Pycnometric method

| SMILES | mass density (303.15 K, x1 = 0.75) [kg/m3] | mass density (313.15 K, x1 = 0.75) [kg/m3] | mass density (323.15 K, x1 = 0.75) [kg/m3] | mass density (333.15 K, x1 = 0.75) [kg/m3] | mass density (303.15 K, x2 = 0.75) [kg/m3] | mass density (313.15 K, x2 = 0.75) [kg/m3] | mass density (323.15 K, x2 = 0.75) [kg/m3] | mass density (333.15 K, x2 = 0.75) [kg/m3] |
| --- | --- | --- | --- | --- | --- | --- | --- | --- |
| CC(=O)CCC(=O)O [4-oxopentanoic acid] + CC[N+](CC)(CC)CC.[Br-] | 1169.9 ± 1.1 | 1162.2 ± 1.1 | 1154.6 ± 1.1 | 1147.4 ± 1.2 |  |  |  |  |
| CC(=O)OCC[N+](C)(C)C.[Cl-] [acetylcholine chloride] + CC(=O)CCC(=O)O |  |  |  |  | 1136.9 ± 1.1 | 1129.4 ± 1.1 | 1121.8 ± 1.1 | 1114.4 ± 1.1 |
| CCCC[N+](CCCC)(CCCC)CCCC.[Cl-] [tetrabutylammonium chloride] + CC(=O)CCC(=O)O |  |  |  |  | 1027.3 ± 1.2 | 1020.3 ± 1.3 | 1013.1 ± 1.3 | 1006 ± 1.3 |
| CC(=O)CCC(=O)O [4-oxopentanoic acid] + CCCC[N+](CCCC)(CCCC)CCCC.[Br-] | 1093.5 ± 1.1 | 1086.2 ± 1.1 | 1078.8 ± 1.1 | 1072.1 ± 1.1 |  |  |  |  |
| CC[N+](CC)(CC)CC.[Cl-] [tetraethylammonium chloride] + CC(=O)CCC(=O)O |  |  |  |  | 1090.3 ± 1.3 | 1083.3 ± 1.3 | 1076.1 ± 1.3 | 1069.2 ± 1.3 |
